Data reported in patent US20130149740A1, “METHOD FOR THE PRODUCTION OF A POLYMERIZED PRODUCT” (Baxter Healthcare S.A., priority 2011, published 2013).

Legend:
[1] = Viscosity and estimated capillary number of fibrin sealant components and mixes (squeezing regime); format: physicochemical; details: at 130 s^−1
Description: For these experiments, the experimental device and set-up was the same as described above. However, the liquid which is segmented by air is a mix. Raw products are fibrinogen (with methylene blue as coloring agent) and thrombin from TISSEEL kit which have to be mixed prior to segmentation. A Duploject system was applied which can be completed with a mixing device upstream the T-junction.
Under the “squeezing” regime of segmentation, the viscosities in the following table are calculated for different components, as well as the corresponding capillary numbers for mixes.

[2] = Doxorubicin living time (stability), concentration followed by fluorescence; format: physicochemical; details: in presence of fibrin
Description: DX has some fluorescence properties which can easily be used to measure its concentration in a solution. Indeed, excited with a 470 nm light, it emits a 593 light which intensity depends on DX concentration.

Row | Viscosity [1] [cP] | DX living time [2] | Structure (SMILES)
1 | 1.3 | – | [Ca+2].[Cl-].[Cl-] [CaCl2 (40 μmol/ml), CaCl2]
2 | – | higher than 14 days | COc1cccc2c1C(=O)c1c(O)c3c(c(O)c1C2=O)C[C@@](O)(C(=O)CO)C[C@@H]3O[C@H]1C[C@H](N)[C@H](O)[C@H](C)O1 [DX, Doxorubicin]
